Assay results as given in US9486461B2, “Methods and compositions for inducing apoptosis by stimulating ER stress” (UNIVERSITY OF SOUTHERN CALIFORNIA, priority 2007, dated 2016).
Values joined by “and” are separate entries in the source; they are usually repeats but may differ in a detail not shown here. Identical values can stand only once.

How the values were obtained:
CHOP protein = experiment: Western blot of CHOP in various cancer cell lines; assay type: cell-based; details: glioblastoma, breast carcinoma, pancreatic carcinoma, Burkitt's lymphoma, multiple myeloma cell lines; Cxb 40 and 60 μM, DMC 30 and 50 μM; 48 hours
Method: Total cellular lysates were prepared and analyzed by Western blot analysis with specific antibodies to CHOP. As a control for equal loading, all blots were also analyzed with antibodies to actin (only one of these control blots is shown at the bottom). The tumor type of each cell line is indicated on the right.
(§1) Total cell lysates were prepared by lysis of cells with radioimmunoprecipitation assay buffer (28), and protein concentrations were determined using the bicinchoninic acid protein assay reagent (Pierce, Rockford, Ill.). For Western blot analysis, 50 Ag of each sample were processed as described (29). The primary antibodies were purchased from Cell Signaling Technologies (Beverly, Mass.), Cayman Chemical (Ann Arbor, Mich.), or Santa Cruz Biotechnology, Inc. (Santa Cruz, Calif.) and used according to the manufacturer's recommendations. The secondary antibodies were coupled to horseradish peroxidase and detected by chemiluminescence using the SuperSignal West substrate from Pierce. All immunoblots were repeated at least once to confirm the results.

[1] = test system: CHOP, GRP78, caspase 4 in U251 glioblastoma cells; experiment: Western blot of ER stress indicators in U251 cells; assay type: cell-based, human; details: for CHOP expression, time kinetics: U251, 50 μmol/L, 4 h up to 24 h
Method: U251 glioblastoma cells were cultured in the presence of 1 μM thapsigargin (Tg) or 60 μM DMC for various times, as indicated. Total cell lysates were prepared and analyzed by Western blot with specific antibodies to the ER stress proteins GRP78, CHOP, and caspase 4 (Casp 4). Actin was used as a loading control.
Shown are (A) time kinetics at 50 μM of each drug, and (B) concentration dependence after 15 hours of incubation.
Shown are (FIG. 7A) time kinetics at 50 μM of each drug, and (FIG. 7B), concentration dependence after 15 hours of incubation.
U251 glioblastoma cells were cultured for 24 hours in the presence of increasing concentrations of (A) bortezomib (BZM) or (B) DMC. Total cell lysates were analyzed by Western blot with specific antibodies to ubiquitin, GRP78, CHOP, and caspase 4. Actin was used as a loading control.
as §1
Total cell lysates were prepared and analyzed by Western blot analysis as described earlier (19). Immunohistochemical analysis of protein expression in tumor tissues was performed with the use of the Vectastain avidin-biotin complex method kit (Vector Laboratories) as described previously (32). The primary antibodies were purchased from Cell Signaling Technology or Santa Cruz Biotechnology, Inc. and used according to the manufacturers' recommendations. All immunoblots and stainings were repeated at least once to confirm the results.

cellular translation = experiment: Incorporation of 35S-methionine into newly translated proteins; assay type: cell-based; details: 2 h of treatment
[2] = test system: CHOP protein in U87 glioblastoma tumor tissue; experiment: Immunohistochemical staining for CHOP in xenograft tumor tissue; assay type: in vivo, nude mice; details: for CHOP staining of tumor tissues: 30-180 mg/kg per day for 50 h, DMC and celecoxib already at lowest dosages
Description: In all cases, representative sections are shown.
Immunohistochemical analysis of protein expression in tumor tissues was done with the use of the Vectastain avidin-biotin complex method kit (Vector Laboratories, Burlingame, Calif.) according to the manufacturer's instructions. This procedure uses biotinylated secondary antibodies and a preformed avidin: biotinylated enzyme complex that has been termed the avidin-biotin complex method technique. As the primary antibody, we used anti-CHOP antibody (Santa Cruz Biotechnology) diluted 1:100 in 2% normal goat blocking serum.

[3] = Drug concentrations in plasma and tumor tissue by LC-MS; assay type: in vivo; details: 50 h; for Tumor tissue levels (approximately μmol/L) / Tumor tissue levels: U87 tumor tissue; for Maximum plasma levels: tumor-bearing nude mice
Method: Blood was collected in heparinized syringes using cardiac puncture of nude mice. The blood was allowed to settle at room temperature for 30 min followed by centrifugation at 2,000 rpm for 5 min at 4° C. The plasma was separated from the cells and transferred to a fresh tube. […] After thorough vortexing, plasma proteins were precipitated using 425 μL acetonitrile and vortexing for 1 min. The entire mixture was centrifuged at 4,500 rpm for 5 min to separate the protein precipitate, and 400 μL of the supernatant were transferred to a fresh tube. The sample was evaporated using a steady stream of air, and the dried residue was reconstituted using 150 μL of mobile phase consisting of 80:20 (v/v) methanol:10 mmol/L ammonium acetate (pH 4.5). To remove any undissolved precipitates, the samples were again centrifuged at 4,500 rpm for 5 min, and the supernatant was transferred to a fresh tube. Ten microliters of each sample were analyzed in duplicate by liquid chromatography mass spectrometry.
To determine the amount of drug in each sample, an Agilent 1100 high-pressure liquid chromatography system (Agilent Technologies, Santa Clara, Calif.) coupled onto a Sciex API 3000 triple quadruple tandem mass spectrometer (Applied Biosystems, Foster City, Calif.) was used. To separate the analytes, a Thermo HyPURITY C18 column (50×4.6 mm, 3 micron; Thermo Fisher Scientific, Inc., Waltham, Mass.) was used. The mobile phase consisted of 80:20 (v/v) methanol:10 mmol/L ammonium acetate (pH 4.5). […] The analytes were then introduced into the Sciex API 3000, which was set in the negative ion mode. […] The lower level of quantification of this assay was established at 5 ng/mL.

[4] = test system: T98G glioblastoma cell line; experiment: MTT assay, T98G; assay type: cell-based; details: Homo sapiens, 48 h, read-out: IC50 (50% inhibition of cell growth)
Method: For comparison purposes to the known anti-multiple myeloma effects of bortezomib, the RPMI/8226 multiple myeloma cell line was included in (A).
3-(4,5-Dimethylthiazol-2-yl)-2,5-diphenyltetrazolium bromide (MTT) assays were performed in 96-well plates with the use of 3.0×10^3 to 8.0×10^3 cells per well as described in detail elsewhere (19).

[5] = 30 mg/kg/d, average of two measurements
[6] = 30 mg/kg/d, half dose every 12 h into the stomach, average of two measurements
[7] = 90 mg/kg/d, average of two measurements
[8] = 90 mg/kg/d, half dose every 12 h into the stomach, average of two measurements
[9] = 150 mg/kg/d, average of two measurements
[10] = 150 mg/kg/d, half dose every 12 h into the stomach, average of two measurements
[11] = 180 mg/kg/d, average of two measurements
[12] = 180 mg/kg/d, half dose every 12 h into the stomach, average of two measurements

Compound	induction of CHOP protein (CHOP protein)	CHOP expression, time kinetics [1]	CHOP staining of tumor tissues ([2]; U87 xenograft)	Tumor tissue levels (approximately μmol/L) ([3]; 30 mg/kg/d) [µmol/L]	Tumor tissue levels [3, 5] [ng/mg]	Maximum plasma levels ([3]; 30 mg/kg/d) [µmol/L]	Maximum plasma levels [3, 6]	Tumor tissue levels (approximately μmol/L) ([3]; 90 mg/kg/d) [µmol/L]	Tumor tissue levels [3, 7] [ng/mg]	Maximum plasma levels ([3]; 90 mg/kg/d) [µmol/L]	Maximum plasma levels [3, 8]	Tumor tissue levels (approximately μmol/L) ([3]; 150 mg/kg/d) [µmol/L]	Tumor tissue levels [3, 9] [ng/mg]	Maximum plasma levels ([3]; 150 mg/kg/d) [µmol/L]	Maximum plasma levels [3, 10]	Tumor tissue levels (approximately μmol/L) ([3]; 180 mg/kg/d) [µmol/L]	Tumor tissue levels [3, 11] [ng/mg]	Maximum plasma levels ([3]; 180 mg/kg/d)	Maximum plasma levels [3, 12]	IC50 [4] [µM]	also measured
Cc1ccc(C)c(-c2cc(C(F)(F)F)nn2-c2ccc(S(N)(=O)=O)cc2)c1 [DMC, 4-[5-(2,5-dimethylphenyl)-3-(trifluoromethyl)-1H-pyrazol-1-yl]benzenesulfonamide]	potently induce CHOP	pronounced induction of CHOP	positive for CHOP	~0.021	8.27	7.6	3,035 μg/L	~0.037	14.44	8.0	3,190 μg/L	~0.099	39.04	23.8	9,500 μg/L	~0.280	110.42	45 µmol/L and 45.5 µmol/L	18,200 μg/L	< 40	increase in CHOP or GRP78 protein, concentration dependence ([1]; U251, 15 hours, concentrations up to 75 or 100 μmol/L): potently induced; expression of GRP78 and CHOP ([1]; U251, increasing concentrations, 24 hours): strong induction of GRP78 and CHOP; time at which activation (cleavage) of caspase-4 was first noted ([1]; U251, 1 μM thapsigargin or 60 μM DMC): ~24 h; CHOP and GRP78 expression levels ([1]; U251, 1 μM thapsigargin or 60 μM DMC, prominent increase at 6 h and thereafter): substantially elevated; reduction of ongoing translation (cellular translation; 60 μmol/L): ~90%; CHOP expression in tumor tissue ([2]; U87MG xenograft, 1 mg/kg BZM and 7.5 mg/kg DMC individually or in combination, 50 h): did not cause much elevated CHOP expression; CHOP protein expression in tumor tissue ([2]; U87 xenograft, animals fed drug for 50 h): large increase in CHOP protein expression
Cc1ccc(-c2cc(C(F)(F)F)nn2-c2ccc(S(N)(=O)=O)cc2)cc1 [celecoxib, 4-[5-(4-methylphenyl)-3-(trifluoromethyl)-1H-pyrazol-1-yl]benzenesulfonamide]	potently induce CHOP	noticeable lower compared with DMC	positive for CHOP	~0.046	17.53	18.2	6,950 μg/L	~0.116	44.03	24.8	9,450 μg/L	~0.161	61.23	36.8	14,000 μg/L	~0.25	94.78	45 µmol/L	17,000 μg/L	~50	reduction of ongoing translation (cellular translation; 80 μmol/L): ~90%; Tumor tissue levels (approximately μmol/L) ([3]; 180 mg/kg/d, listed as Cxb): ~0.249 µmol/L; Maximum plasma levels ([3]; 180 mg/kg/d, listed as Cxb): 44.6 µmol/L
